Source: the NIST ThermoML archive (doi:10.1016/j.fluid.2017.09.010)
± gives the expanded uncertainty stated by the source.

Settings: Liquid, Ebulliometric method (Recirculating still)

**Q.** For `CC(=O)OC(C)C` [1-methylethyl ethanoate], which “vapor or sublimation pressure” value (361.8 K) is on record?
**A.** Its value is 101 ± 1 kPa.

**Q.** Which “vapor or sublimation pressure” value (355.4 K) does the source give for `CC(C)O` [propan-2-ol] here?
**A.** Its value is 101 ± 1 kPa.

**Q.** For `O` [water], which “vapor or sublimation pressure” value (373 K) is on record?
**A.** Its value is 101 ± 5 kPa.

**Q.** For `CCCOC(C)=O` [propyl ethanoate], which “vapor or sublimation pressure” value (374.2 K) is on record?
**A.** The value was 101 ± 1 kPa.
